Like-named read-outs stand apart in the source and are kept apart here.
What was measured:
[1] = tested on: L-929 mouse fibroblasts; test: MTT test, growth inhibition of L-929 mouse fibroblasts; assay type: cell-based; settings: read-out: IC50 (L929), 5 d incubation, MTT assay
[2] = tested on: human primary foreskin fibroblast (HFF) cells; settings: read-out: EC50 (HFF), viable cells after 72 h, triplicates
[3] = tested on: human primary foreskin fibroblast (HFF) cells; test: cells; settings: 72 h, read-out: EC50 (HFF)
[4] = in vitro; settings: human

| Compound | IC50 [1] [nM] | EC50 [2] [nM] | EC50 [3] [nM] | EC50 at 72 h [4] [nM] |
| --- | --- | --- | --- | --- |
| CO[C@@H]1C(=O)O[C@H](C)[C@H](C)/C=C(\C)C[C@H](C)C(=O)N[C@@H](C)C(=O)N(C)[C@H](Cc2c[nH]c3ccccc23)C(=O)N[C@H]1c1ccc(O)cc1 [chon A_np (2a), chondramide A] | 56 ± 13 | 118 ± 23 |  |  |
| CO[C@@H]1C(=O)O[C@H](C)[C@@H](C)C=C(C)C[C@H](C)C(=O)N[C@@H](C)C(=O)N(C)[C@H](Cc2c(Cl)[nH]c3ccccc23)C(=O)NC1c1ccc(O)cc1 (stereo partly drawn) [chon B_np (3), chondramide B] |  | 44 ± 5 |  |  |
| C/C1=C\[C@@H](C)[C@@H](C)OC(=O)C[C@H](c2ccc(O)cc2)NC(=O)[C@@H](Cc2c[nH]c3ccccc23)N(C)C(=O)[C@H](C)NC(=O)[C@@H](C)C1 [chon C_np (4), chondramide C] |  | 36 ± 7 |  |  |
| C/C1=C\[C@H](C)C[C@H](C)OC(=O)C[C@H](c2ccc(O)cc2)NC(=O)[C@@H](Cc2c(Br)[nH]c3ccccc23)N(C)C(=O)[C@H](C)NC(=O)[C@@H](C)C1 [jasplakinolide_np (1), jasplakinolide] |  |  | 28 ± 4 | ~30 |

Source: paper PMC3228261 (Chemistry (Weinheim an der Bergstrasse, Germany), 2011)
